Reference: patent publication US8003659B2, “Macrocyclic serine protease inhibitors” (Indenix Pharmaceuticals, Inc., priority 2008, dated 2011)

Experiments:
[1] = from C=CCCCCN(C)C(=O)[C@@H]1C[C@H](Oc2cc(-c3nc(C(C)C)cs3)nc3c(Cl)c(OC)ccc23)CN1C(=O)N[C@]1(C(=O)NS(=O)(=O)C2CC2)C[C@H]1C=C; rcm bond; 14-membered ring; Zhan 1B (2%); DCE; 5.0 mM; 75.0 °C; 0.75 h
HCV NS3-NS4A protease = target: T1, HCV NS3-NS4A protease (Hepatitis C virus genotype 1b, UniProt P26663); experiment: HCV Protease Assay (SensoLyte 620 HCV Protease Assay kit); format: biochemical; conditions: 1.2 nM HCV NS3-NS4A protease, 60 min at room temperature, 5% DMSO
T1 construct: made in house
Summary of the method: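 Protease at 1.2 nM, run with the SensoLyte 620 fluorogenic kit under supplier conditions, with compounds at several concentrations in buffer with 5% final DMSO. Reactions ran 60 min at room temperature before fluorescence reading; IC50 from four-parameter sigmoidal fit of percent inhibition.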

[2] = test system: Huh-7 cells containing HCV Con1 subgenomic replicon (GS4.1 cells); experiment: HCV Replicon Assay (NS4A ELISA); format: cell-based; conditions: Hepatitis C virus, Huh-7, 72 hr, NS4A protein by ELISA
Summary of the method: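 GS4.1 cells (Huh-7 with HCV Con1 subgenomic replicon) given ten 2-fold compound dilutions (top 75 μM) or a single 15 μM dose in 0.5% DMSO for 72 h at 37 °C. NS4A measured by cell ELISA (A492); EC50 from four-parameter sigmoidal fit, single-dose results as % inhibition at 15 μM.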

[3] = Cytotoxicity (CC50) in the genotype 1b replicon assay; format: cell-based; conditions: human, GS4.1 cells; genotype 1b replicon assay as described in Example 32
Procedure: For cytotoxicity evaluation, GS4.1 cells were treated with compounds as described above and cellular viability was monitored using the Cell Titer 96 AQueous One Solution Cell Proliferation Assay (Promega). CC50 values were determined from the % cytotoxicity versus concentration data with Tecan Magellan software as described above.
Compounds were tested in a genotype 1b replicon assay as described in Example 32 and the results are summarized in Table 6, wherein A represents a value smaller than 1 μM, and B represents a value between 1 μM to 10 μM, C represents a value between 10 μM to 75 μM and D represents a value greater than 75 μM.

mutant protease D168A = experiment: Resistance profile, mutant protease D168A; format: biochemical, HCV; conditions: ratio of inhibitory activity against mutant enzyme over non-mutant enzyme
Procedure: General procedure: Measurement of the inhibitory effect of compounds on HCV protease activity was performed with the SensoLyte™ 620 HCV Protease Assay kit from AnaSpec, Inc. (San Jose, Calif.) under conditions described by the supplier using 1.2 nM HCV NS3-NS4A protease, which was obtained according to Taremi et al. (Protein Science, 1998, 7, 2143-2149). The compounds were tested at a variety of concentrations in assay buffer containing a final DMSO concentration of 5%. Reactions were allowed to proceed for 60 min at room temperature and fluorescence measurements were recorded with a Tecan Infinity Spectrofluorimeter. The IC50 values were determined from the percent inhibition versus concentration data using a sigmoidal non-linear regression analysis based on four parameters with Tecan Magellan software.
Compounds were evaluated against three mutant proteases R155Q, A156S, and D168A, as summarized in Table 8, wherein A represents a value smaller than 1, and B represents a value between 1 to 10, and C represents a value greater than 10. The fold of change in inhibitory activity was determined by measuring the ratio of the inhibitory activity of a compound against a mutant enzyme over the inhibitory activity of the same compound against non-mutant enzyme. The inhibitory activity was determined using the procedure as described in Example 31.

T1 sequence (P26663 1027-1208): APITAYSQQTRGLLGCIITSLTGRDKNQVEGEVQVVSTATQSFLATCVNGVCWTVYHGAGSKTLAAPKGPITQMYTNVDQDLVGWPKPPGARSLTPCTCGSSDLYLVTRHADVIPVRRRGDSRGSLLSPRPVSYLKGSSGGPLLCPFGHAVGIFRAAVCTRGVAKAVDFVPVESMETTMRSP

COc1ccc2c(O[C@H]3C[C@H]4C(=O)N(C)CCCC/C=C\[C@@H]5C[C@@]5(C(=O)NS(=O)(=O)C5CC5)NC(=O)N4C3)cc(-c3nc(C(C)C)cs3)nc2c1Cl [Compound 62d, (Z)-(4R,6S,15S,17S)-[17-[8-chloro-7-methoxy-2-(4-isopropylthiazol-2-yl)quinolin-4-yloxy]-13-N-methyl-2,14-dioxo-1,3,13-triazatricyclo[13.3.0.0]octadec-7-en-4-yl]carbonyl(cyclopropyl)sulfonamide]
ring closure, isolated yield [1]: 63%
IC50 (HCV NS3-NS4A protease): < 1 µM
EC50 [2]: < 1 µM
CC50 [3]: 10 to 75 µM
Fold-Change D168A (mutant protease D168A): C (C represents a value greater than 10)
